From ChEMBL document CHEMBL1130548, “Synthesis and structure-activity relationships for a series of substituted pyrrolidine NK1/NK2 receptor antagonists” (Bioorg Med Chem Lett, 1997)
Each block holds one molecule with its values, some of them ahead of it.

How the values were obtained:
[1] = target: Substance-P receptor (Cavia porcellus, UniProt P30547); assay: Binding affinity for NK1 receptor in guinea pig lung was determined by using [125 I]-Bolton Hunter labeled SP
[2] = Partition coefficient (logD); type: physicochemical; conditions: octanol/water
[3] = The solubility in a […] phosphate buffer solution at pH 7.4; type: ADME
[4] = test system: Cavia porcellus; assay: The perorally administered compound was evaluated for percentage inhibition of capsaicin induced respiratory effects at 10 mg / kg concentration in guinea pig; conditions: po
[5] = The relative permeability was measured from transport studies using polycarbonate membranes and Dulbecco's modified eagle medium with 10% fetal bovine serum.; type: ADME
[6] = The pKa1 value for the compound was determined by titrating in an aqueous solution (ISA).; type: physicochemical; conditions: read-out: pKa1
[7] = organism: Rattus norvegicus; assay: The relative metabolic stability at 10 uM concentration was determined using rat liver […] fortified with NADPH.; type: functional
[8] = Partition coefficient (logP); type: physicochemical; conditions: octanol/water
[9] = The pKa3 value for the compound was determined by titrating in an aqueous solution (ISA).; type: physicochemical; conditions: read-out: pKa3
[10] = The pKa2 value for the compound was determined by titrating in an aqueous solution (ISA).; type: physicochemical; conditions: read-out: pKa2

Substance-P receptor, sequence (P30547 whole entry): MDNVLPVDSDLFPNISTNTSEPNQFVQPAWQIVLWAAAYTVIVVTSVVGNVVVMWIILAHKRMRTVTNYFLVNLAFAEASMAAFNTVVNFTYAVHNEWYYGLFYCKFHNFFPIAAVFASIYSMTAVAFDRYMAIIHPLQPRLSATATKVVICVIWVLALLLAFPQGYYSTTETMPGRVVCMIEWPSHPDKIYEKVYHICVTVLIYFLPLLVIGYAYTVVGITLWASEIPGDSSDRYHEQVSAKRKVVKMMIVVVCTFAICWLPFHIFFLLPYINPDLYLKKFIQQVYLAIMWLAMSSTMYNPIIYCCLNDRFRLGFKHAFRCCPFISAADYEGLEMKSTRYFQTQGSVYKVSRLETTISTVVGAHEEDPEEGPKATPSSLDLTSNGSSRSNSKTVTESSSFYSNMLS

Structure (SMILES): COc1cc(C(=O)N2CCC(CCN3CCC(C(N)=O)(c4ccccc4)CC3)(c3ccc(F)c(F)c3)C2)cc(OC)c1OC (configuration not stated)
IC50 [1]: 9.76 nM

Structure (SMILES): COc1cc(C(=O)N2CCC(CCN3CCC(C(N)=O)(c4ccccc4)CC3)(c3ccc(Cl)cc3)C2)cc(OC)c1OC (configuration not stated)
IC50 [1]: 8.62 nM

Structure (SMILES): COc1cc(C(=O)N2CCC(CCN3CCC(C(N)=O)(c4ccc(F)cc4)CC3)(c3ccc(Cl)c(Cl)c3)C2)cc(OC)c1OC (configuration not stated)
IC50 [1]: 13.5 nM

IC50 [1]: 8.72 nM
Structure (SMILES): COc1cc(C(=O)N2CCC(CCN3CCC(C(=O)N4CCOCC4)(c4ccccc4)CC3)(c3ccc(Cl)c(Cl)c3)C2)cc(OC)c1OC (configuration not stated)

Structure (SMILES): COc1cc(C(=O)N2CCC(CCN3CCC(C(N)=O)(c4cccnc4)CC3)(c3ccc(Cl)c(Cl)c3)C2)cc(OC)c1OC (configuration not stated)
IC50 [1]: 8.14 nM

Structure (SMILES): COc1cc(C(=O)N2CCC(CCN3CCC(C(N)=O)(c4ccccc4)CC3)(c3ccc(F)cc3)C2)cc(OC)c1OC (configuration not stated)
IC50 [1]: 23.3 nM

IC50 [1]: 4.51 nM
Structure (SMILES): COc1cc(C(=O)N2CCC(CCN3CCC(C(=O)N4CCN(C)CC4)(c4ccccc4)CC3)(c3ccc(Cl)c(Cl)c3)C2)cc(OC)c1OC (configuration not stated)

Structure (SMILES): COc1cc(C(=O)N2CCC(CCN3CCC(C(N)=O)(c4ccncc4)CC3)(c3ccc(Cl)c(Cl)c3)C2)cc(OC)c1OC (configuration not stated)
IC50 [1]: 4.88 nM

Structure (SMILES): COc1cccc(C2(C(N)=O)CCN(CCC3(c4ccc(Cl)c(Cl)c4)CCN(C(=O)c4cc(OC)c(OC)c(OC)c4)C3)CC2)c1 (configuration not stated)
IC50 [1]: 8.49 nM

Structure (SMILES): COc1cc(C(=O)N2CCC(CCN3CCC(C(=O)NCCN4CCOCC4)(c4ccccc4)CC3)(c3ccc(Cl)c(Cl)c3)C2)cc(OC)c1OC (configuration not stated)
IC50 [1]: 7.53 nM

Structure (SMILES): COc1cc(C(=O)N2CC[C@](CCN3CCC(C(N)=O)(c4ccccc4)CC3)(c3ccc(Cl)c(Cl)c3)C2)cc(OC)c1OC.Cl
logD ([2]; read-out: logD): 3.02
solubility [3]: 70 µg/mL
inhibition in vivo at 10 mg/kg [4]: 60%
Relative permiability [5]: 1
pKa [6]: 7.64
Relative metabolic stability [7]: 1
logP [8]: 3.4
IC50 [1]: 3.11 nM

logD ([2]; read-out: logD): 3.02
solubility [3]: 25 µg/mL
Relative permiability [5]: 3.7
pKa [6]: 7.51
logP ([8]; read-out: logP): 4.3
IC50 [1]: 4.34 nM
Structure (SMILES): COc1cc(C(=O)N2CC[C@](CCN3CCC(C(=O)N4CCOCC4)(c4ccccc4)CC3)(c3ccc(Cl)c(Cl)c3)C2)cc(OC)c1OC.Cl
inhibition in vivo at 10 mg/kg [4]: 39%
Relative metabolic stability [7]: 0.77

pKa [9]: 6.71
logD ([2]; read-out: logD): 2.41
solubility [3]: 1200 µg/mL
Relative permiability [5]: 1.2
pKa [6]: 11.4
pKa [10]: 7.76
logP ([8]; read-out: logP): 3.2
IC50 [1]: 2.46 nM
Structure (SMILES): COc1cc(C(=O)N2CC[C@](CCN3CCC(C(=O)N4CCN(C)CC4)(c4cccnc4)CC3)(c3ccc(Cl)c(Cl)c3)C2)cc(OC)c1OC.Cl
inhibition in vivo at 10 mg/kg [4]: 13%

Structure (SMILES): COc1cc(C(=O)N2CC[C@](CCN3CCC(C(N)=O)(c4ccncc4)CC3)(c3ccc(Cl)c(Cl)c3)C2)cc(OC)c1OC.Cl
logD [2]: 2.64
solubility [3]: 408 µg/mL
inhibition in vivo at 10 mg/kg [4]: 20%
Relative permiability [5]: 0.1
pKa [6]: 7.53
pKa [10]: 4.14
Relative metabolic stability [7]: 0.78
logP [8]: 1.9
IC50 [1]: 2.49 nM

logD ([2]; read-out: logD): 3.71
solubility [3]: 426 µg/mL
Relative permiability [5]: 2.1
pKa [6]: 7.92
pKa [10]: 6.86
logP ([8]; read-out: logP): 4.7
IC50 [1]: 3.94 nM
Structure (SMILES): COc1cc(C(=O)N2CC[C@](CCN3CCC(C(=O)N4CCN(C)CC4)(c4ccccc4)CC3)(c3ccc(Cl)c(Cl)c3)C2)cc(OC)c1OC.Cl
inhibition in vivo at 10 mg/kg [4]: 31%
Relative metabolic stability [7]: 0.43

Structure (SMILES): COc1cc(C(=O)N2CC[C@](CCN3CCC(C(N)=O)(c4cccnc4)CC3)(c3ccc(Cl)c(Cl)c3)C2)cc(OC)c1OC.Cl
logD [2]: 2.59
solubility [3]: 548 µg/mL
inhibition in vivo at 10 mg/kg [4]: 38%
Relative permiability [5]: 0.1
pKa [6]: 7.6
pKa [10]: 3.97
Relative metabolic stability [7]: 0.72
logP [8]: 1.9
IC50 [1]: 4.01 nM

Structure (SMILES): COc1cc(C(=O)N2CCC(CCN3CCC(C(N)=O)(c4ccccc4)CC3)(c3ccc(Cl)c(Cl)c3)C2)cc(OC)c1OC (configuration not stated)
IC50 [1]: 5.88 nM

Structure (SMILES): COc1cc(C(=O)N2CCC(CCN3CCC(C(N)=O)(c4ccccc4)CC3)(c3cccc(Cl)c3)C2)cc(OC)c1OC (configuration not stated)
IC50 [1]: 10.7 nM

Structure (SMILES): COc1cc(C(=O)N2CCC(CCN3CCC(C(N)=O)(c4ccccc4)CC3)(c3cccnc3)C2)cc(OC)c1OC (configuration not stated)
IC50 [1]: 567 nM

IC50 [1]: 23.2 nM
Structure (SMILES): COc1cc(C(=O)N2CCC(CCN3CCC(C(=O)N4CCCCC4)(c4ccccc4)CC3)(c3ccc(Cl)c(Cl)c3)C2)cc(OC)c1OC (configuration not stated)

Structure (SMILES): COc1ccc(C2(CCN3CCC(C(N)=O)(c4ccccc4)CC3)CCN(C(=O)c3cc(OC)c(OC)c(OC)c3)C2)cc1OC (configuration not stated)
IC50 [1]: 36.7 nM
